Experimental data taken from article PMC3799806 (Bioorganic & medicinal chemistry, 2012).

Tested on: HG23 cells
Experiment: cell cytotoxicity assay kit
Type: cell-based
Conditions: TD50

## O=C(CN(Cc1ccccc1)S(=O)(=O)NCc1cccc(Oc2ccccc2)c1)NCCN1CCOCC1 [Compound 11b, 2-(Benzyl(N-(3-phenoxybenzyl)sulfamoyl)amino)-N-(2-morpholinoethyl)acetamide]
  higher toxicity versus compound 11a: ~ 8 fold
